Consider three molecules from ChEMBL document CHEMBL1177888, “Mn(II), Co(II) and Zn(II) complexes with heterocyclic substituted thiosemicarbazones: synthesis, characterization, X-ray crystal structures and antitumor comparison” (Eur J Med Chem, 2010).

Each structure is given as a SMILES string.

The test system of this experiment is K562. In words: Cytotoxicity against human K562 cells after 48 hrs by MTT assay. It counts as functional, cell-based. The note with it: K562, 48 h. A general note: Formazan colour is commonly taken as a measure of viable cells.
As usually defined, the IC50 is the concentration that gives 50% inhibition. Lower therefore signals higher potency. As for `C/C(=N\NC(N)=S)c1ccccn1`, 29.7 µM corresponded to half-maximal inhibition (IC50).
The figure for `S=C(N/N=C(\c1ccccc1)c1ccccn1)Nc1ccccc1` is 1.43 µM; for `CNC(=S)N/N=C(\C)c1ccccn1` it is 4.58 µM.
